23 compounds from patent publication US8518931B2, “Compounds and compositions as kinase inhibitors” (IRM LLC, priority 2008, dated 2013) can be followed below.

As a reminder, the IC50 is the midpoint of a concentration-inhibition curve. Higher therefore signals a need for much substance.

T1 sequence (Q9UM73 with tags, fused parts or gaps): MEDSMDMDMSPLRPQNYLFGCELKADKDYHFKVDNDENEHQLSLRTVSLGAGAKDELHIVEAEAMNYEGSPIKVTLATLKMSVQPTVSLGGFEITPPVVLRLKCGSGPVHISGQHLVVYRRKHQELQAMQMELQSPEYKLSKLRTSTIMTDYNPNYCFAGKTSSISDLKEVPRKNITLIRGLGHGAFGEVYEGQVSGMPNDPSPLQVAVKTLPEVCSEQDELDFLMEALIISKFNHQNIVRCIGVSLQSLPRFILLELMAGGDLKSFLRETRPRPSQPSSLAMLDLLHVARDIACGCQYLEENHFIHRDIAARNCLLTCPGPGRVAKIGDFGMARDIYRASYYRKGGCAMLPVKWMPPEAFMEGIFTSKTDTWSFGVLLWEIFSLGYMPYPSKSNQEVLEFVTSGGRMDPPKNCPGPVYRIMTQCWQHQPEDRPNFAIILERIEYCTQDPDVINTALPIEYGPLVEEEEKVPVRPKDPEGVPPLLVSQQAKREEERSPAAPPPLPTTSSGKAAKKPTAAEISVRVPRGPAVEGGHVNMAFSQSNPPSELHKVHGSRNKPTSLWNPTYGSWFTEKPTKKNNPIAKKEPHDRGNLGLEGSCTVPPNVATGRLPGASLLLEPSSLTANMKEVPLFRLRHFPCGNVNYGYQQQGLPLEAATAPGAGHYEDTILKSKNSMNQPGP

The assay addresses T1, NPM-ALK (Homo sapiens, UniProt Q9UM73).
T1 construct: nucleophosmin (NPM, NPM1; human P06748) fusion partner; expressed in transfected cells; host or cells: murine BaF3 cells (DSMZ), transfected with pCIneo (Promega) coding for NPM-ALK and selected with G418; the other entry of the earlier key: Npm1 (Q61937, Nucleophosmin)
Put plainly: NPM-ALK BaF3 assay (growth inhibition of BaF3-NPM-ALK cells). Conditions: human NPM-ALK overexpressing murine BaF3 cells. The format is cell-based. The text has this: The expression of NPM-ALK may be achieved by transfecting the BaF3 cell line with an expression vector pClneo™ (Promega Corp., Madison Wis., USA) coding for NPM-ALK and subsequent selection of G418 resistant cells. Non-transfected BaF3 cells depend on IL-3 for cell survival. In contrast, NPM-ALK expressing BaF3 cells (named BaF3-NPM-ALK hereinafter) can proliferate in the absence of IL-3 because they obtain proliferative signal through NPM-ALK kinase. Putative inhibitors of the NPM-ALK kinase therefore abolish the growth signal and may result in antiproliferative activity. The antiproliferative activity of putative inhibitors of the NPM-ALK kinase can however be overcome by addition of IL-3, which provides growth signals through an NPM-ALK independent mechanism. An analogous cell system using FLT3 kinase has also been described (see, E Weisberg et al. Cancer Cell; 1, 433-443 (2002)).
The inhibitory activity of the compounds of the invention may be determined as follows. In general, BaF3-NPM-ALK cells (15,000/microtitre plate well) are transferred to 96-well microtitre plates. Test compounds dissolved in dimethyl sulfoxide (DMSO) are added in a series of concentrations (dilution series) in such a manner that the final concentration of DMSO is not greater than 1% (v/v). After the addition, the plates are incubated for two days during which the control cultures without test compound are able to undergo two cell-division cycles. The growth of the BaF3-NPM-ALK cells is measured by means of YOPRO™ staining [T Idziorek et al. J. Immunol. Methods; 185: 249-258 (1995)]: 25 μl of lysis buffer comprising 20 mM sodium citrate, pH 4.0, 26.8 mM sodium chloride, 0.4% NP40, 20 mM EDTA and […] to each well. Cell lysis is completed within 60 min at room temperature and total amount of YOPRO™ bound to DNA is determined by measurement using the Cytofluor II 96-well reader (PerSeptive Biosystems) with the following settings: Excitation (nm) 485/20 and Emission (nm) 530/25.
IC50 values may be determined by a computer-aided system using the formula: IC50=[(ABStest−ABSstart)/(ABScontrol−ABSstart)]×100·(ABS=absorption)
In general, compounds of the invention have IC50 values from 1 nM to 10 μM. In some examples, compounds of the invention have IC50 values from 0.01 μM to 5 μM. In other examples, compounds of the invention have IC50 values from 0.01 μM to 1 μM, or more particularly from 1 nM to 1 μM.
Table 1 describes representative compounds of the invention, prepared following the procedures described above. IC50 values are as measured in an NPM-ALK BaF3 assay.
The compound `COC[C@H](N)C(=O)N1CCC(c2cc(OC)c(Nc3nc(Nc4ccccc4S(=O)(=O)C(C)C)n4nccc4n3)cc2C)CC1` [Ex 94] showed an IC50 of 0.016 µM.

Regarding `COc1cc(C2CCN(C(=O)[C@H]3COCCN3)CC2)c(C)cc1Nc1nc(Nc2ccccc2S(=O)(=O)C(C)C)n2nccc2n1` [Ex 70, (R)-(4-(4-(4-(2-(isopropylsulfonyl)phenylamino)pyrazolo[1,5-a][1,3,5]triazin-2-ylamino)-5-methoxy-2-methylphenyl)piperidin-1-yl)(morpholin-3-yl)methanone], the IC50 was 0.035 µM.

`CC(C)S(=O)(=O)c1ccccc1Nc1nc(Nc2ccc(C3CCN(CCC(N)=O)CC3)cc2)nc2ccnn12` [Ex 92]: the midpoint of inhibition, the IC50, lay at 0.13 µM.

Turning to `COc1cc(C2CCN(CCS(C)(=O)=O)CC2)c(C)cc1Nc1nc(Nc2ccccc2S(=O)(=O)C(C)C)n2nccc2n1` [Ex 7], 0.05 µM corresponded to half-maximal inhibition (IC50).

`CNC(=O)CN1CCC(c2cc(OC)c(Nc3nc(Nc4ccccc4S(=O)(=O)C(C)C)n4nccc4n3)cc2C)CC1` [Ex 12] returned an IC50 of 0.028 µM.

The compound `Cc1cc(CN2CCC(c3cc(OC(C)C)c(Nc4nc(Nc5ccccc5S(=O)(=O)C(C)C)n5nccc5n4)cc3C)CC2)[nH]n1` [Ex 5] showed an IC50 of 0.14 µM.

`COc1cc(C2CCN(C(=O)[C@H]3COC(C)(C)CN3)CC2)c(C)cc1Nc1nc(Nc2ccccc2S(=O)(=O)C(C)C)n2nccc2n1` [Ex 85] came in with a 50% inhibitory concentration (IC50) of 0.034 µM.

The compound `Cc1cc(C2CCNCC2)c(Cl)cc1Nc1nc(Nc2ccccc2S(=O)(=O)C(C)C)n2nccc2n1` [Ex 11] had an IC50 of 1.4 µM.

`COc1cc(C2CCN(C(=O)[C@H](C)N3CC[C@H](O)C3)CC2)c(C)cc1Nc1nc(Nc2ccccc2S(=O)(=O)C(C)C)n2nccc2n1` [Ex 78]: the half-maximal inhibitory concentration (IC50) turned out to be 0.036 µM.

Compound `COc1cc(C2CCN(C(=O)CCN3CCCC3)CC2)c(C)cc1Nc1nc(Nc2ccccc2S(=O)(=O)C(C)C)n2nccc2n1` [Ex 104] registered an IC50 of 0.049 µM.

Consider `COc1cc(C2CCN(C(=O)[C@H](C)NC(C)C)CC2)c(C)cc1Nc1nc(Nc2ccccc2S(=O)(=O)C(C)C)n2nccc2n1` [Ex 64], for which the IC50 was 0.028 µM.

Turning to `CC(C)S(=O)(=O)c1ccccc1Nc1nc(Nc2ccc3c(c2)CN(CCS(C)(=O)=O)CC3)nc2ccnn12` [Ex 39], the half-maximal inhibitory concentration (IC50) worked out at 0.464 µM.

In the case of `CNCCC(=O)N1CCC(c2cc(OC)c(Nc3nc(Nc4ccccc4S(=O)(=O)C(C)C)n4nccc4n3)cc2C)CC1` [Ex 19], inhibition was half-maximal at 0.068 µM (IC50).

`Cc1cc(C2CCN(CCS(C)(=O)=O)CC2)ccc1Nc1nc(Nc2ccccc2S(=O)(=O)C(C)C)n2nccc2n1` [Ex 46] yielded an IC50 of 0.031 µM.

`CCCN(CCC)CC(=O)N1CCC(c2cc(OC)c(Nc3nc(Nc4ccccc4S(=O)(=O)C(C)C)n4nccc4n3)cc2C)CC1` [Ex 102] displayed an IC50 of 0.049 µM.

For the compound `COc1cc(C2CCN(C(=O)C(C)(CO)CO)CC2)c(C)cc1Nc1nc(Nc2ccccc2S(=O)(=O)C(C)C)n2nccc2n1` [Ex 106], the IC50 was determined as 0.016 µM.

Regarding `CNCC(=O)N1CCC(c2cc(OC)c(Nc3nc(Nc4ccccc4S(=O)(=O)C(C)C)n4nccc4n3)cc2C)CC1` [Ex 17], the half-inhibitory concentration (IC50) was 0.022 µM.

Consider `COc1cc(C2CCN(C(=O)C3(N)CC3)CC2)c(C)cc1Nc1nc(Nc2ccccc2S(=O)(=O)C(C)C)n2nccc2n1` [Ex 18], for which the concentration for half-maximal inhibition (IC50) was found to be 0.039 µM.

`COc1cc(C2CCN(C(=O)[C@H](C)N3CCCC3)CC2)c(C)cc1Nc1nc(Nc2ccccc2S(=O)(=O)C(C)C)n2nccc2n1` [Ex 80] returned an IC50 of 0.033 µM.

In turn, `Cc1cc(Nc2nc(Nc3ccccc3S(=O)(=O)C(C)C)n3nccc3n2)ccc1C1CCN(CCS(C)(=O)=O)CC1` [Ex 47] came in with an IC50 of 0.046 µM.

`COc1cc(C2CCN(C(=O)[C@H](N)CO)CC2)c(C)cc1Nc1nc(Nc2ccccc2S(=O)(=O)C(C)C)n2nccc2n1` [Ex 86] displayed a 50% inhibitory concentration (IC50) of 0.034 µM.

For `COc1cc(C2CCN(C(=O)CN3CC[C@H](F)C3)CC2)c(C)cc1Nc1nc(Nc2ccccc2S(=O)(=O)C(C)C)n2nccc2n1` [Ex 76], the concentration for half-maximal inhibition (IC50) is 0.075 µM.

`COc1cc(C2CCN(C(=O)CCCN3CCOCC3)CC2)c(C)cc1Nc1nc(Nc2ccccc2S(=O)(=O)C(C)C)n2nccc2n1` [Ex 101] gave a half-inhibitory concentration (IC50) of 0.031 µM.
